Data on one compound can be found in patent US6875578B2, “System for cell-based screening” (priority 1997, dated 2005).

The test system of one experiment is SNB-19 cells. Kind of experiment: High-content screen of paclitaxel-induced apoptosis, SNB-19 cells. In kind it is cell-based. The following applies: 26 h. The method, then:
The cells chosen for this study were mouse connective tissue fibroblasts (L-929; ATCC CCL-1) and a highly invasive glioblastoma cell line (SNB-19; ATCC CRL-2219) (Welch et al., In Vitro Cell. Dev. Bid. 31:610, 1995). The day before treatment with an apoptosis inducing drug, 3500 cells were placed into each well of a 96-well plate and incubated overnight at 37° C. in a humidified 5% CO2 atmosphere. The following day, the culture medium was removed from each well and replaced with fresh medium containing various concentrations of paclitaxel (0-50 μM) from a 20 mM stock made in DMSO. The maximal concentration of DMSO used in these experiments was 0.25%. The cells were then incubated for 26 h as above. At the end of the paclitaxel treatment period, each well received fresh medium containing 750 nM MITOTRACKER™ Red (Molecular Probes; Eugene, Oreg.) and 3 μg/ml Hoechst 33342 DNA-binding dye (Molecular Probes) and was incubated as above for 20 mm. Each well on the plate was then washed with HBSS and fixed with 3.7% formaldehyde in HBSS for 15 mm at room temperature. […] The fluorescence signals from plates stored this way were stable for at least two weeks after preparation. As in the nuclear translocation assay, fluorescence reagents can be designed to convert this assay into a live cell high-content screen.
The fluorescence intensity of intracellular MITOTRACKER™ Red, Hoechst 33342, and BODIPY™ FL phallacidin was measured with the cell screening system as described supra. […]
A total of 50-250 cells were measured per image field. For each field of cells, the following calculations were performed: (1) The average nuclear area (μm^2) was calculated by dividing the total nuclear area in a field by the number of nuclei detected. (2) The average nuclear perimeter (μm) was calculated by dividing the sum of the perimeters of all nuclei in a field by the number of nuclei detected in that field. […] (3) The average nuclear brightness was calculated by dividing the integrated intensity of the entire field of nuclei by the number of nuclei in that field. […]

The test system of another experiment is MCF-7 cells. Kind of experiment: Apoptosis nuclear morphology, MCF-7 cells. The class given is cell-based. The following applies: 30 hours. The method, then: Cells were plated into 96-well plates at densities of 3×10^3 to 1×10^4 cells/well. The following day apoptotic inducers were added at indicated concentrations and cells were incubated for indicated time periods (usually 16-30 hours). The next day medium was removed and cells were stained with 5 μg/ml Hoechst (Molecular Probes, Inc.) in fresh medium and incubated for 30 minutes at 37° C. Cells were washed in Hank's Balanced Salt Solution (HBSS) and fixed with 3.7% formaldehyde in HBSS at room temperature. Cells were washed 2×with HBSS at room temperature and the plate was sealed.
Quantitation of changes in nuclear morphology upon induction of apoptosis was accomplished by (1) measuring the effective size of the nuclear region; and (2) measuring the degree of convolution of the perimeter.

The test system of a further experiment is BHK cells. Kind of experiment: Apoptosis actin reorganization (f-actin content), BHK cells. The class given is cell-based. The settings on record: 30 hours. The procedure:
Cells were plated in 96-well plates at densities of 3×10^3 to 1×10^4 cells/well. The following day apoptotic inducers were added at indicated concentrations. Cells were incubated for the indicated time periods (usually 16-30 hours). The next day the medium was removed and cells were stained with 5 μg/ml Hoechst (Molecular Probes, Inc.) in fresh medium and incubated for 30 minutes at […]. Cells were washed in HBSS and fixed with 3.7% formaldehyde in HBSS at room temperature. Plates were washed with HBSS and permeabilized with 0.5% v/v Triton X-100 in HBSS at room temperature. Plates were washed in HBSS and stained with 100 μl of 1 U/ml of Alexa 488 Phalloidin stock (100 μl/well, Molecular Probes, Inc.). Cells were washed 2×with HBSS at RT and the plate was sealed.
Quantitation of f-actin content was accomplished by measuring the intensity of phalloidin staining around the nucleus. This was determined to be a reasonable approximation of a full cytoplasmic average of the intensity. The mask used to approximate this cytoplasmic measure was derived from the nuclear mask defined by the Hoechst stain. Derivation was accomplished by combinations of erosions and dilations.

Another experiment relates to L929 cells. Description: Apoptosis mitochondrial mass/potential, L929 cells. The class given is cell-based, mouse. The settings on record: 30 hours. The method, then:
Cells were plated into 96-well plates at densities of 3×10^3 to 1×10^4 cells/well. The following day apoptotic inducers were added at the indicated concentrations and cells were incubated for the indicated time periods (usually 16-30 hours). Cells were stained with 5 μg/ml Hoechst (Molecular Probes, Inc.) and 750 nM MITOTRACKER™ Red (CMXRos, Molecular Probes, Inc.) in fresh medium and incubated for 30 minutes at 37° C. Cells were washed in HBSS and fixed with 3.7% formaldehyde in HBSS at room temperature. Plates were washed with HBSS and permeabilized with 0.5% v/v TRITON™ X-100 in HBSS at room temperature. Cells were washed 2× with HBSS at room temperature and the plate was sealed. For dual labeling of mitochondria, cells were treated with 200 nM MITOTRACKER™ Green and 200 nM MITOTRACKER™ Red for 0.5 hours before fixation.
The mitochondrial membrane potential is measured by labeling mitochondria with both MITOTRACKER™ Green FM and MITOTRACKER™ Red (Molecular Probes, mc). MITOTRACKER™ Red labeling is proportional to both mass and membrane potential. MITOTRACKER™ Green FM labeling is proportional to mass. The ratio of MITOTRACKER™ Red signal to the MITOTRACKER™ Green FM signal provides a measure of mitochondrial membrane potential (Poot and Pierce, 1999). This ratio normalizes the […]. […]

As for `CC(=O)O[C@H]1C(=O)[C@@]2(C)[C@H]([C@H](OC(=O)c3ccccc3)[C@]3(O)C[C@H](OC(=O)[C@H](O)[C@@H](NC(=O)c4ccccc4)c4ccccc4)C(C)=C1C3(C)C)[C@]1(OC(C)=O)CO[C@@H]1C[C@@H]2O` [paclitaxel], in the experiment with SNB-19 cells (10 nM paclitaxel), the mitochondrial potential result is “minimal at the same concentration of paclitaxel”. The “concentration at which area, brightness, and fragmentation of the nucleus and actin polymerization values reached a maximum value” in the experiment on SNB-19 cells is 10 nM. The “all the parameters measured at increasing concentrations” value in the experiment with SNB-19 cells (>10 nM paclitaxel) is reported as “approached control levels”. For the same compound, in the experiment on MCF-7 cells, the “change in nuclear morphology” value is given as “nuclear fragmentation”. The results for the “change in peri-nuclear f-actin content” value in the experiment with BHK cells and in the experiment with BHK cells (listed as Paclitaxel) were “results that are more variable” and “highly variable”, respectively. In addition, in the experiment with L929 cells, the “mitochondrial changes (mass / membrane potential)” value is reported as “consistent increases in mitochondrial mass”.
